Tests used:
[1] = system: SRS-A (slow reacting substance of anaphylaxis) production and release; test: Inhibitory effect on SRS-A (slow reacting substance of anaphylaxis) production and release in sensitised guinea-pig lung fragments; format: cell-based; details: guinea-pig lung fragments sensitised with egg albumin
Method: The inhibitory effect on SRS-A production and release was examined by the method of Orange and Moore (J. Immunol., 116, 392-397, 1976). Quinone derivatives were added to guinea-pig lung fragments sensitised with egg albumin as the antigen, and the amount of SRS-A produced and released as a consequence was assayed by the method of Brocklehust (J. Physiol., 151, 416-435, 1960).

[2] = system: SHR (spontaneously hypertensive rats); test: Blood-pressure reducing action in SHR (spontaneously hypertensive rats); format: in vivo, rat; details: oral, L-methyldopa 40 mg/kg, test compound equimolar amount
Method: The blood-pressure reducing action of the compounds obtained in the above-mentioned Examples was confirmed with the use of SHR (spontaneously hypertensive rats) in accordance with the method of Watson and Ludden (L. S. Watson & C. T. Ludden in "New Antihypertensive Drugs", A. Scriabin and C. S. Sweet, Ed., Spectrum Publications, New York, 1976, page 87). As a control compound, L-methyldopa was orally administered in a dose of 40 mg/kg, while an equimolar amount of a test compound was orally given, to examine the effect. Results are shown in Table 8, where the marks, (+++), (++), (+) and (±), indicate the blood-pressure reducing actions of 31 to 40 mmHg, 21 to 30 mmHg, 11 to 20 mmHg and not more than 10 mmHg, respectively.

[3] = system: mortal activity of arachidonic acid in mouse; test: Suppression of mortal activity of arachidonic acid in mouse; format: in vivo; details: 300 mg/kg oral, 1 hour before arachidonic acid 60 mg/kg i.v., male JCL:ICR mice, read-out: Number of survival mice/Total number of mice (converted)
Method: Male mice (four weeks old, JCL:ICR) were used in this experimental. Quinone derivatives were suspended with arabin to administrate per OS. After one hour of the oral administration at a dose of 300 mg/kg of a quinone derivative, an aqueous solution of arachidonic acid (20 mg/ml, pH 8.8) was intravenously administrated at dose of 60 mg/kg of arachidonic acid from mouse tail vein. The suppressive effects were shown in Table 10 by the ratio of the number of survival mice to the total number of mice administrated the test compound.

Molecule | Blood-pressure reducing action [2] | responders at 300 mg/kg [3] [%] | other results
NC1=NN(c2cccc(C(F)(F)F)c2)CC1 [BW-755c, reference compound] |  |  | inhibition at 10 µM ([1]; Cavia porcellus, 10 μM): 4.7 ± 3.7%; inhibition at 100 µM ([1]; Cavia porcellus, 100 μM): 15.3 ± 4.3%
CC1=C(C/C=C(\C)CC/C=C(\C)CCC(=O)O)C(=O)c2ccccc2C1=O [IIa-3] | +++ (31 to 40 mmHg) | 40 | inhibition at 10 µM ([1]; Cavia porcellus, 10 μM): 38.6 ± 4.3%
CC1=C(C/C=C(\C)CC/C=C(\C)CC/C=C(\C)CCC(=O)O)C(=O)c2ccccc2C1=O [IIa-4] | +++ (31 to 40 mmHg) |  | inhibition at 1 µM ([1]; Cavia porcellus): 24.3 ± 4.2%
CC1=C(C/C=C(\C)CC/C=C(\C)CC/C=C(\C)CC/C=C(\C)CCC(=O)O)C(=O)c2ccccc2C1=O [IIa-5] | +++ (31 to 40 mmHg) |  | 
CC1=C(C)C(=O)C(C/C=C(\C)CC/C=C(\C)CCC(=O)O)=C(C)C1=O [IIa-7] |  |  | inhibition at 10 µM ([1]; Cavia porcellus, 10 μM): 40.2 ± 7.3%
CC1=C(C)C(=O)C(C/C=C(\C)CC/C=C(\C)CC/C=C(\C)CC/C=C(\C)CCC(=O)O)=C(C)C1=O [IIa-9] | ++ (21 to 30 mmHg) |  | 
COC1=C(OC)C(=O)C(C/C=C(\C)CC/C=C(\C)CCC(=O)O)=C(C)C1=O [IIa-10] |  |  | inhibition at 1 µM ([1]; Cavia porcellus): 35 ± 6.3%
COC1=C(OC)C(=O)C(C/C=C(\C)CC/C=C(\C)CC/C=C(\C)CCC(=O)O)=C(C)C1=O [IIa-12] | ++ (21 to 30 mmHg) |  | inhibition at 1 µM ([1]; Cavia porcellus): 21.8 ± 8.5%
COC1=C(OC)C(=O)C(C/C=C(\C)CC/C=C(\C)CC/C=C(\C)CC/C=C(\C)CCC(=O)O)=C(C)C1=O [IIa-13] | ++ (21 to 30 mmHg) |  | 
COC1=C(OC)C(=O)C(C/C=C(\C)CC/C=C(\C)CC/C=C(\C)CC/C=C(\C)CC/C=C(\C)CC/C=C(\C)CC/C=C(\C)CCC(=O)O)=C(C)C1=O [IIa-14] | ++ (21 to 30 mmHg) |  | 
COC1=C(OC)C(=O)C(C/C=C(\C)CC/C=C(\C)CC/C=C(\C)CC/C=C(\C)CC/C=C(\C)CC/C=C(\C)CC/C=C(\C)CC/C=C(\C)CC/C=C(\C)CC/C=C(\C)CCC(=O)O)=C(C)C1=O [IIa-15] | ++ (21 to 30 mmHg) |  | 
COC1=C(OC)C(=O)C(C/C=C(\C)CC/C=C(\C)CCC(=O)OC/C=C(\C)CC/C=C(\C)CCC=C(C)C)=C(C)C1=O [IIa-16] | ++ (21 to 30 mmHg) |  | 
COC1=C(OC)C(=O)C(C/C=C(\C)CC/C=C(\C)CCC(=O)OC/C=C(\C)CCC=C(C)C)=C(C)C1=O [IIa-19] | ++ (21 to 30 mmHg) |  | 
CC(C)=CCC/C(C)=C/COC(=O)CC/C(C)=C/CC/C(C)=C/CC1=C(C)C(=O)c2ccccc2C1=O [IIa-20] | ++ (21 to 30 mmHg) |  | 
CC(C)=CCC/C(C)=C/CC/C(C)=C/COC(=O)CC/C(C)=C/CC/C(C)=C/CC1=C(C)C(=O)c2ccccc2C1=O [IIa-21] | ++ (21 to 30 mmHg) |  | 
COC1=C(OC)C(=O)C(C/C=C(\C)CCC(=O)N2CCN(C/C=C(\C)CC/C=C(\C)CCC=C(C)C)CC2)=C(C)C1=O [Ia-3] |  | 40 | 
COC1=C(OC)C(=O)C(C/C=C(\C)CC/C=C(\C)CCC(=O)N2CCN(Cc3cc(OC)c(OC)c(OC)c3)CC2)=C(C)C1=O [Ia-6] |  | 40 | inhibition at 1 µM ([1]; Cavia porcellus): 26.8 ± 2.2%
COC1=C(OC)C(=O)C(C/C=C(\C)CC/C=C(\C)CCC(N)=O)=C(C)C1=O [Ia-7] |  | 40 | 
COC1=C(OC)C(=O)C(C/C=C(\C)CC/C=C(\C)CCC(=O)N2CCOCC2)=C(C)C1=O [Ia-9] |  | 40 | 
COC1=C(OC)C(=O)C(C/C=C(\C)CC/C=C(\C)CC/C=C(\C)CCC(=O)N2CCN(Cc3ccc4c(c3)OCO4)CC2)=C(C)C1=O [Ia-11] |  | 80 | inhibition at 1 µM ([1]; Cavia porcellus): 15 ± 5.6%
COc1cc(CN2CCN(C(=O)CC/C(C)=C/CC/C(C)=C/CC/C(C)=C/CC3=C(C)C(=O)c4ccccc4C3=O)CC2)cc(OC)c1OC [Ia-28] |  | 100 | 
COC1=C(OC)C(=O)C(C/C=C(\C)CC/C=C(\C)CCC(=O)N(C(=O)NC2CCCCC2)C2CCCCC2)=C(C)C1=O [Ia-48] |  | 40 | 
C[C@](N)(Cc1ccc(O)c(O)c1)C(=O)O [L-Methyldopa, reference compound] | +++ (31 to 40 mmHg) |  | 
Sodium baikalein phosphate [BSP, reference compound] |  |  | Inhibitory Effect on SRS-A Production (% inhibition of production and release) ([1]; 10 μM): 18.7 ± 6.6%; Inhibitory Effect on SRS-A Production (% inhibition of production and release) ([1]; 100 μM): 50.8 ± 10.7%
